Experimental findings from PubChem BioAssay (NCI) are described below.

Test systems include CCRF-CEM leukemia; HCT-15 colon; HOP-62 NSCLC; MALME-3M melanoma; MCF7 breast; PC-3 prostate; U251 CNS; UACC-257 melanoma.
Common to all, as to test: DTP human tumour cell line panel, 48 h

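Method: 48-hour compound exposure of cells in 96-well plates, five concentrations, linear interpolation of endpoints. The concentration for 50% growth inhibition is given as GI50. TGI is the concentration that stops growth completely.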

As to `O=C(OCc1ccc2ccccc2n1)c1cn(C2CC2)c2cc(N3CCN(Cc4ccc5ccccc5n4)CC3)c(F)cc2c1=O`, the GI50 (as a rule, the concentration that inhibits growth by half) with CCRF-CEM leukemia is greater than 100 µM; in the assay with HCT-15 colon, 62600 nM; in the assay on HOP-62 NSCLC, greater than 53.8 µM; in the assay on MALME-3M melanoma it was 33.2 µM; in the assay with MCF7 breast, 35000 nM; with PC-3 prostate, greater than 44600 nM. Also, the GI50 in the assay with U251 CNS was 56.7 µM; in the assay with UACC-257 melanoma, greater than 94.2 µM. The TGI (usually the concentration giving total growth inhibition) in the assay on CCRF-CEM leukemia is greater than 100 µM; in the assay with HCT-15 colon it was greater than 100 µM; in the assay with HOP-62 NSCLC it was greater than 95.2 µM; in the assay on MALME-3M melanoma, greater than 84.2 µM; in the assay with MCF7 breast, greater than 92.7 µM; with PC-3 prostate, greater than 80.2 µM. Further, the TGI in the assay with U251 CNS and with UACC-257 melanoma was greater than 100 µM each time.
Take `COc1ccc2c(c1)N(CCO)C1=C(C(=O)OC1)C2c1cccc(F)c1` (stereo unspecified): the GI50 was 0.43 µM in the assay on CCRF-CEM leukemia; 233 nM with HCT-15 colon; 0.391 µM with MALME-3M melanoma; 202 nM with MCF7 breast; 232 nM in the assay with PC-3 prostate; 0.65 µM with U251 CNS. Moreover, the GI50 in the assay with UACC-257 melanoma was greater than 50 µM. Also, the total growth inhibition concentration (TGI) in the assay on CCRF-CEM leukemia, in the assay on HCT-15 colon, in the assay with HOP-62 NSCLC, in the assay on MALME-3M melanoma, with MCF7 breast and in the assay on PC-3 prostate was greater than 50 µM throughout. Besides, the TGI in the assay with U251 CNS and with UACC-257 melanoma was greater than 50 µM each time.
Turning to `O=C(O)c1ccc(C(=O)c2ccccc2)c(C(=O)O)c1`, the concentration for total growth inhibition (TGI) with CCRF-CEM leukemia, in the assay on HCT-15 colon, in the assay on HOP-62 NSCLC, in the assay on MALME-3M melanoma, with MCF7 breast and in the assay with PC-3 prostate was greater than 100 µM each time. Besides, the total growth inhibition concentration (TGI) with U251 CNS and with UACC-257 melanoma was greater than 100 µM in each case.
Regarding `O=C1OC(=O)C(=C\c2ccc3c(c2)OCO3)/C1=C/c1ccc2c(c1)OCO2`, the total growth inhibition concentration (TGI) was greater than 88.6 µM with CCRF-CEM leukemia; greater than 100 µM in the assay with HCT-15 colon; greater than 100 µM in the assay with HOP-62 NSCLC; greater than 100 µM in the assay on MALME-3M melanoma; greater than 100 µM with MCF7 breast; greater than 100 µM with PC-3 prostate. Also, the concentration for total growth inhibition (TGI) in the assay with U251 CNS and with UACC-257 melanoma was greater than 100 µM each time.
Turning to `CO/N=C(\COc1ccc2c(c1)[nH]c1ccccc12)c1ccc(F)cc1`, the GI50 with CCRF-CEM leukemia is 22.6 µM; with HCT-15 colon, greater than 100000 nM; in the assay on HOP-62 NSCLC, 6.44 µM; in the assay with MALME-3M melanoma, 22.8 µM; in the assay with MCF7 breast, greater than 100000 nM; in the assay with PC-3 prostate, 30600 nM. Further, the GI50 in the assay with U251 CNS is 25.4 µM; with UACC-257 melanoma, 48.7 µM. The total growth inhibition concentration (TGI) in the assay with CCRF-CEM leukemia is 53.9 µM; with HCT-15 colon, greater than 100 µM; in the assay with HOP-62 NSCLC, 26.7 µM; in the assay with MALME-3M melanoma, greater than 100 µM; in the assay with MCF7 breast, greater than 100 µM; in the assay on PC-3 prostate, greater than 100 µM. Moreover, the concentration for total growth inhibition (TGI) in the assay on U251 CNS and in the assay with UACC-257 melanoma was greater than 100 µM throughout.
As for `O=S(=O)(Nc1cc(Sc2cccc3cccnc23)c(O)c2ccccc12)c1ccc(F)cc1`, the GI50 is 0.544 µM in the assay with CCRF-CEM leukemia; 461 nM in the assay with HCT-15 colon; 2.05 µM in the assay with HOP-62 NSCLC; 1.98 µM in the assay on MALME-3M melanoma; 1050 nM in the assay on MCF7 breast; 740 nM in the assay with PC-3 prostate. The GI50 with U251 CNS is 0.839 µM; in the assay with UACC-257 melanoma, 1.75 µM. In addition, the TGI was found to be 11.9 µM with CCRF-CEM leukemia; 3.16 µM in the assay on HCT-15 colon; 17 µM in the assay with HOP-62 NSCLC; 4.94 µM with MALME-3M melanoma; 3.21 µM with MCF7 breast; 12.1 µM with PC-3 prostate. The TGI in the assay with U251 CNS amounted to 10.4 µM; in the assay on UACC-257 melanoma, 4.56 µM.
On to `COc1ccc(-c2nc(Nc3cc(C)[nH]n3)c3ccccc3n2)cc1`, for which the GI50 is 5.18 µM in the assay on CCRF-CEM leukemia; 1340 nM in the assay on HCT-15 colon; 1.17 µM in the assay on HOP-62 NSCLC; 28.5 µM in the assay with MALME-3M melanoma; 1710 nM in the assay on MCF7 breast; 1480 nM in the assay with PC-3 prostate. Further, the GI50 in the assay with U251 CNS is 1.16 µM; in the assay on UACC-257 melanoma, 13 µM. Also, the TGI with CCRF-CEM leukemia is 66.2 µM; with HCT-15 colon it was greater than 100 µM; in the assay on HOP-62 NSCLC it was greater than 26.2 µM; with MALME-3M melanoma, greater than 100 µM; in the assay with MCF7 breast it was 44.6 µM; in the assay with PC-3 prostate, 66.1 µM. The total growth inhibition concentration (TGI) in the assay with U251 CNS is greater than 100 µM; in the assay with UACC-257 melanoma it was 65.2 µM.
On to `Cc1cc(S(=O)(=O)/N=C(/N)Nc2ccccc2O)c(SCc2ccccc2)cc1Cl`, for which the GI50 is 5.95 µM with CCRF-CEM leukemia; 12100 nM in the assay on HCT-15 colon; 20.7 µM in the assay with HOP-62 NSCLC; 20.3 µM with MALME-3M melanoma; 15900 nM in the assay on MCF7 breast; 13900 nM with PC-3 prostate. Moreover, the GI50 in the assay with U251 CNS was 14.9 µM; in the assay with UACC-257 melanoma it was 14.6 µM. Also, the TGI in the assay on CCRF-CEM leukemia was found to be 39.8 µM; with HCT-15 colon it was 28 µM; with HOP-62 NSCLC, 37.3 µM; with MALME-3M melanoma, 38.2 µM; with MCF7 breast, 55.7 µM; in the assay on PC-3 prostate, 32.4 µM. Besides, the concentration for total growth inhibition (TGI) in the assay with U251 CNS amounted to 30.5 µM; in the assay with UACC-257 melanoma, 30.4 µM.
